# Test results from paper PMC5762338, “A novel orally available Syk/Src/Jak2 inhibitor, SKLB-850, showed potent anti-tumor activities in B cell lymphoma (BCL) models” (Oncotarget, 2017).
# Where “and” joins values, the source holds several entries; their conditions need not be identical. Identical values can stand only once.
# Columns and labels:
# Ramos cells = experiment: Chemotaxis assay toward CXCL12 (transwell); assay type: cell-based, Human; conditions: CXCL12 200ng/mL, 12 hours
# Procedure: And BCL cells could migrate toward the chemokine CXCL12 upon activation of its receptor CD184 [27].
# Chemotaxis assay was performed as previously described. Briefly, 1×10^6 Ramos cells were cultured in RPMI 1640 containing 0.5% bovine serum albumin and were pre-incubated for 30 minutes with SKLB-850, R788 or DMSO, and then they were added to the inserts of transwell chambers (5μm poresize; Corning). Inserts were then transferred into wells containing CXCL12 (200ng/mL). After 12 hours, cell count was determined for the upper and lower well in duplicates using a flow cytometer (Novocyte Technologies, China). Chemotaxis indices were calculated as: [number of cells in the lower chamber×100] / [number of cells in the lower and upper chambers]. The chemotaxis index with SKLB-850 was calculated as percentage of the DMSO index.
# Pim-2 = target: T1, Pim-2 (Homo sapiens, UniProt Q9P1W9); experiment: Kinase inhibition, 33P radiometric assay (Millipore Kinase Profiler); assay type: biochemical
# T1 construct: purchased Millipore (Kinase Profiler service)
# Procedure: (§1) Kinase inhibitory potency of SKLB-850 against a number of selected kinases were measured with gold-standard^33 P radio-labeled technology. […] For the remaining 11 kinases tested, SKLB-850 exibited very weak or no activity (IC50 > 10 μM).
# (§2) The IC50 values of SKLB-850 for kinase inhibition in vitro were measured by radiometric assays conducted by Kinase Profiler service provided by Millipore as described in Pan’s study.
# PKBα = target: T2, PKBα (Homo sapiens, UniProt P31749); experiment: as above; assay type: biochemical
# T2 construct: purchased Millipore (Kinase Profiler service)
# T2 sequence (P31749 whole entry): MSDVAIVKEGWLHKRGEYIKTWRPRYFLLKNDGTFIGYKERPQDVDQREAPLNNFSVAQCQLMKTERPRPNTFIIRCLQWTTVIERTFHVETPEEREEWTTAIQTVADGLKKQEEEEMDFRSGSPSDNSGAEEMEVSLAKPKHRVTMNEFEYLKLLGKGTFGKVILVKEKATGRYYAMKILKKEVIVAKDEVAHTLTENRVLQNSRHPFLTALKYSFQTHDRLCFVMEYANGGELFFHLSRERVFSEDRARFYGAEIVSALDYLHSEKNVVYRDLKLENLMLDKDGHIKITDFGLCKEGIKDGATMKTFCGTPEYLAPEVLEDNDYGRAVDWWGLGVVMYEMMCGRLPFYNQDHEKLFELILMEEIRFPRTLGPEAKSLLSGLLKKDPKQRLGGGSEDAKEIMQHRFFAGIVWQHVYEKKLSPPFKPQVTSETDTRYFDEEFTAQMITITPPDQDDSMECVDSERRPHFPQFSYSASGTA
# Procedure: as §1, §2
# Src = target: T3, Src (Homo sapiens, UniProt P12931); experiment: as above; assay type: biochemical
# T3 construct: purchased Millipore (Kinase Profiler service)
# T3 sequence (P12931 whole entry): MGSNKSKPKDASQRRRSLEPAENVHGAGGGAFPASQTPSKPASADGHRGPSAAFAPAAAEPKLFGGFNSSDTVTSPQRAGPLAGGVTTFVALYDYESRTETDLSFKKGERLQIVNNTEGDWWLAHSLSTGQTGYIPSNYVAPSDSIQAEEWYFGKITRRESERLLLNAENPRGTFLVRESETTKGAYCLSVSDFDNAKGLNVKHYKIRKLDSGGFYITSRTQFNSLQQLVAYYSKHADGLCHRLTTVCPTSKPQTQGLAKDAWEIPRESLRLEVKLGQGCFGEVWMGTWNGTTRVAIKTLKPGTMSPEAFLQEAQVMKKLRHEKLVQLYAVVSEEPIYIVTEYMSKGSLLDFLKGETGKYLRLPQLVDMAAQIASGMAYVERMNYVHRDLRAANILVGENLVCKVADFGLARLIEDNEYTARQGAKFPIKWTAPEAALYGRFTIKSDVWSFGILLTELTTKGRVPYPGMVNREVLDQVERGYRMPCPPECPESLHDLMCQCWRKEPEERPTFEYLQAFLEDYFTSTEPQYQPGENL
# Procedure: as §1, §2
# PIP4K2α = target: T4, PIP4K2α (Homo sapiens, UniProt P48426); experiment: as above; assay type: biochemical
# T4 construct: purchased Millipore (Kinase Profiler service)
# Procedure: as §1, §2
# mTOR = target: T5, mTOR (Homo sapiens, UniProt P42345); experiment: as above; assay type: biochemical
# T5 construct: purchased Millipore (Kinase Profiler service)
# Procedure: as §1, §2
# PKCα = target: T6, PKCα (Homo sapiens, UniProt P17252); experiment: as above; assay type: biochemical
# T6 construct: purchased Millipore (Kinase Profiler service)
# Procedure: as §1, §2
# CDK3 = target: T7, CDK3 (Homo sapiens, UniProt Q00526); experiment: as above; assay type: biochemical
# T7 construct: purchased Millipore (Kinase Profiler service)
# T7 sequence (Q00526 whole entry): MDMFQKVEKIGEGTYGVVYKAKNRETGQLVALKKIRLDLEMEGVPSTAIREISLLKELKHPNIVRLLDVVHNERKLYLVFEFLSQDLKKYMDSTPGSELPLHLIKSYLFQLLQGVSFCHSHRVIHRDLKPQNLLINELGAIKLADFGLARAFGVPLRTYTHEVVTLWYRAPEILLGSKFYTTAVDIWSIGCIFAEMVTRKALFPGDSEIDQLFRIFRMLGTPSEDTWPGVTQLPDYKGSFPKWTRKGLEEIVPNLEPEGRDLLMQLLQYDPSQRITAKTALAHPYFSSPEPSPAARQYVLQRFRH
# T7 sequence (P24864 whole entry partner): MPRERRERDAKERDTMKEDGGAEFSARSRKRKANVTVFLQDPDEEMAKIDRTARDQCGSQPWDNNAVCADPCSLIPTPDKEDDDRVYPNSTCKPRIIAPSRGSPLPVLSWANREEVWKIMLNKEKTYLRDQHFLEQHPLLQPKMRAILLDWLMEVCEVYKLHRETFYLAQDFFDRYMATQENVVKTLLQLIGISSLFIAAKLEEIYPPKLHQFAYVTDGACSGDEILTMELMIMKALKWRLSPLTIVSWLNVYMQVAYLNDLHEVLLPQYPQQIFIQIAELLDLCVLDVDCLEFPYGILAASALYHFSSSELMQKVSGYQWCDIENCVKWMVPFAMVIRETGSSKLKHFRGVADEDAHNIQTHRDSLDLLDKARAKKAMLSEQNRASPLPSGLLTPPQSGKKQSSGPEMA
# Procedure: as §1, §2
# Syk = target: T8, Syk (Homo sapiens, UniProt P43405); experiment: as above; assay type: biochemical
# T8 construct: purchased Millipore (Kinase Profiler service)
# Procedure: as §1, §2
# JAK2 = target: T9, JAK2 (Homo sapiens, UniProt O60674); experiment: as above; assay type: biochemical
# T9 construct: purchased Millipore (Kinase Profiler service)
# T9 sequence (O60674 whole entry): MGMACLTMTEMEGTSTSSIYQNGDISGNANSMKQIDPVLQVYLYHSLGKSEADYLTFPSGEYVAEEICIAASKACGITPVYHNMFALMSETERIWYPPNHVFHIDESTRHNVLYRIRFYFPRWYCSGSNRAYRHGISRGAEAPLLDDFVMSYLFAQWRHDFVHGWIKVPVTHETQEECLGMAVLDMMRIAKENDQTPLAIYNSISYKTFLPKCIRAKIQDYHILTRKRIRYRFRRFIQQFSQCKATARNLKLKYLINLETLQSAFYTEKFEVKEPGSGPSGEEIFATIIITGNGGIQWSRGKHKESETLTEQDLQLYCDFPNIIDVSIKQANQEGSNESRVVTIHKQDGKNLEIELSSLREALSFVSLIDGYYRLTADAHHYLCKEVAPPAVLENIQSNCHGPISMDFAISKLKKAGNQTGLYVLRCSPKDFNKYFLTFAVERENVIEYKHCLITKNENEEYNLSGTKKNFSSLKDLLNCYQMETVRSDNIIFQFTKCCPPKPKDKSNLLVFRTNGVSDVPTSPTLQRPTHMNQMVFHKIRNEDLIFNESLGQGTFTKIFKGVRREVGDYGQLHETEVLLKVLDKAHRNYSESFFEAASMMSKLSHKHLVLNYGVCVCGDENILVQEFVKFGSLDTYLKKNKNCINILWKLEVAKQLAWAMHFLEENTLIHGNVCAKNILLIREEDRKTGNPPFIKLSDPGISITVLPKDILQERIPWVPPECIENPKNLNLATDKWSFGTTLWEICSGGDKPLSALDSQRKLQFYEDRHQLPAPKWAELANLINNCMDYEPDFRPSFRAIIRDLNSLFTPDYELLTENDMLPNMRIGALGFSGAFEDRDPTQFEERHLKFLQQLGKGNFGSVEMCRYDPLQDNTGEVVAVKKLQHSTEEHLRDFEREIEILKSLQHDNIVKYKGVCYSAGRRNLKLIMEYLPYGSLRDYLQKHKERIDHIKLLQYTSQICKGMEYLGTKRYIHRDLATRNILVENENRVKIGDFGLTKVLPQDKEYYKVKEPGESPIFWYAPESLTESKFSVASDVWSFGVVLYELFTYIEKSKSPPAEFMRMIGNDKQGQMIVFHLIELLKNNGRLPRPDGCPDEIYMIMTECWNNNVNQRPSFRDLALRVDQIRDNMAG
# Procedure: as §1, §2
# EphB3 = target: T10, EphB3 (Homo sapiens, UniProt P54753); experiment: as above; assay type: biochemical
# T10 construct: purchased Millipore (Kinase Profiler service)
# Procedure: as §1, §2
# EGRF = target: T11, EGRF (Homo sapiens, UniProt P00533); experiment: as above; assay type: biochemical; conditions: EGRF (text: EGFR)
# T11 construct: purchased Millipore (Kinase Profiler service)
# T11 sequence (P00533 25-1210): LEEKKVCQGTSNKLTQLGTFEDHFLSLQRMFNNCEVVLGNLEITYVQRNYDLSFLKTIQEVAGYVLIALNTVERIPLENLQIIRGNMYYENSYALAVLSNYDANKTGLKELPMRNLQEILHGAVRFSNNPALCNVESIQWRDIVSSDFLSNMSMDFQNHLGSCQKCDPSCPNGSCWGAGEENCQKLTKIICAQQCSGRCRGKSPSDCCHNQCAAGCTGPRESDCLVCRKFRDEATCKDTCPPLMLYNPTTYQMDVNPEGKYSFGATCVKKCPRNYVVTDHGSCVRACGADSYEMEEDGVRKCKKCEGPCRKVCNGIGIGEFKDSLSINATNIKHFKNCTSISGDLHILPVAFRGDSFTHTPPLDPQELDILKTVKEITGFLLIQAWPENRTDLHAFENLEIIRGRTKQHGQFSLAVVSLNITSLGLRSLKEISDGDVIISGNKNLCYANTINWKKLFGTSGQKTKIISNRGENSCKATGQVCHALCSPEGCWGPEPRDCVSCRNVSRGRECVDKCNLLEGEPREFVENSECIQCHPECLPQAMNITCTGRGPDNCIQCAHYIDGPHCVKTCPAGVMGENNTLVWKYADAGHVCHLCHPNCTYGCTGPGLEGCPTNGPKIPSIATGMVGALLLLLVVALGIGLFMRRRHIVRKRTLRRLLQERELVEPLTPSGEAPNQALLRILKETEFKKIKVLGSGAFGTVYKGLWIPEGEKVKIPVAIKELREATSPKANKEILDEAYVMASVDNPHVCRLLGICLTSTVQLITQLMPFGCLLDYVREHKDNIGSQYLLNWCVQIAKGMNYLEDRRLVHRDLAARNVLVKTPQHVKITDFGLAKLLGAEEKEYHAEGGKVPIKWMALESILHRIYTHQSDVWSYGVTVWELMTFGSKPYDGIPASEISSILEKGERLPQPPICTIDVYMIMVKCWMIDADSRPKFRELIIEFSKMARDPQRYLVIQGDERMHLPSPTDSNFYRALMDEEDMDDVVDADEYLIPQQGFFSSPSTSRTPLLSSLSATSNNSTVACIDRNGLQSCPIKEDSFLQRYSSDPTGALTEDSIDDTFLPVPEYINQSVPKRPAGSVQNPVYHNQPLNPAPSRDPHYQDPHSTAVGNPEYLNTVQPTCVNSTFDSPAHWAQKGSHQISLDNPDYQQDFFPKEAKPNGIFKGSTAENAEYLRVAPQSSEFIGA
# Procedure: as §1, §2
# GSK3β = target: T12, GSK3β (Homo sapiens, UniProt P49841); experiment: as above; assay type: biochemical
# T12 construct: purchased Millipore (Kinase Profiler service)
# T12 sequence (P49841 whole entry): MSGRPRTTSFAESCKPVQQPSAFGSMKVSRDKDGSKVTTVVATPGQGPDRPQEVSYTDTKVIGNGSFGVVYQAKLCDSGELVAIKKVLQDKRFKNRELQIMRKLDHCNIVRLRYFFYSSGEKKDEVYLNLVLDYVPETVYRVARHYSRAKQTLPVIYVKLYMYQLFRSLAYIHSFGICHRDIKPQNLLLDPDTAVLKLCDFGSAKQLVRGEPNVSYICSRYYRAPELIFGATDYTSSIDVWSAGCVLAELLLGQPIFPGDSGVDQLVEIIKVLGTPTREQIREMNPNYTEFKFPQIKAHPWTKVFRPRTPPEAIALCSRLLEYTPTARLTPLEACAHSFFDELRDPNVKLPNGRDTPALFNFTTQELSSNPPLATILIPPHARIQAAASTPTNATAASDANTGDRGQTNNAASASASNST
# Procedure: as §1, §2
# Pim-1 = target: T13, Pim-1 (Homo sapiens, UniProt P11309); experiment: as above; assay type: biochemical
# T13 construct: purchased Millipore (Kinase Profiler service)
# T13 sequence (P11309 whole entry): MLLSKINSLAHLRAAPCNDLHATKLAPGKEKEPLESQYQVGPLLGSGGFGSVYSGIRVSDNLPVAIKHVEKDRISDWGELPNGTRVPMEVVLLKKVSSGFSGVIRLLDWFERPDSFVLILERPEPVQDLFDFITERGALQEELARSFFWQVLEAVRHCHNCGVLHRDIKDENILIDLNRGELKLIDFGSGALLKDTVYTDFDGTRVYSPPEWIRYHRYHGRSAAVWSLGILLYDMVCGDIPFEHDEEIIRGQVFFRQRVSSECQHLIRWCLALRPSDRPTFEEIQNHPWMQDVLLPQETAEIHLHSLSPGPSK
# Procedure: as §1, §2
# CFPAC-1 = experiment: MTT anti-viability assay; assay type: cell-based; conditions: CFPAC-1, Human pancreatic cancer cell, 72 hours
# Procedure: (§3) In vitro anti-viability activities of SKLB-850 against various tumor cell lines were measured using the MTT method.
# (§4) Human cancer cell lines Ramos-ZHL, HBL-1, SuDHL-6, LY-10, LY-1, RAJI, MDA-MB-231, SW1990, SMMC7721, MCF-7, CFPAC-1, HPAC, A549 and H358 were obtained from American Type Culture Collection (ATCC). All tumor cell lines were maintained according to the ATCC procedures and passaged for less than 6 months after receipt for resuscitation. These cells were cultured in RPMI-1640 supplemented with 10% fetal bovine serum (FBS).
# (§5) Cell proliferation was measured using the MTT assay as previously described. Various cells including were treated with indicated concentrations of SKLB-850 for 72 hours. R788 (Selleck.cn) was served as a positive control. Each assay was replicated 3 times.
# RAJI = experiment: MTT anti-viability assay; assay type: cell-based; conditions: Human B cell lymphoma, 72 hours
# Procedure: as §3, §4, §5
# HPAC = experiment: MTT anti-viability assay; assay type: cell-based; conditions: Human pancreatic cancer cell, 72 hours
# Procedure: as §3, §4, §5
# H358 = experiment: MTT anti-viability assay; assay type: cell-based; conditions: 72 hours
# Procedure: as §3, §4, §5
# SW1990 = experiment: MTT anti-viability assay; assay type: cell-based; conditions: SW1990, Human pancreatic cancer cell, 72 hours
# Procedure: as §3, §4, §5
# A549 = experiment: MTT anti-viability assay; assay type: cell-based; conditions: A549, Human non-small cell lung cancer cells, 72 hours
# Procedure: as §3, §4, §5
# MDA-MB-231 = experiment: MTT anti-viability assay; assay type: cell-based; conditions: MDA-MB-231, Human breast cancer cell, 72 hours
# Procedure: as §3, §4, §5
# SMMC7721 = experiment: MTT anti-viability assay; assay type: cell-based; conditions: SMMC-7721, SMMC7721, Human hepatocellular carcinoma cell, 72 hours
# Procedure: as §3, §4, §5
# MCF-7 = experiment: MTT anti-viability assay; assay type: cell-based; conditions: MCF7, MCF-7, Human breast cancer cell, 72 hours
# Procedure: as §3, §4, §5
# HBL-1 = experiment: MTT anti-viability assay; assay type: cell-based; conditions: HBL1, HBL-1, Human diffuse large B cell lymphoma, 72 hours
# Procedure: as §3, §4, §5
# LY-1 = experiment: MTT anti-viability assay; assay type: cell-based; conditions: Ly1, LY-1, Human diffuse large B cell lymphoma, 72 hours
# Procedure: as §3, §4, §5
# Ramos-ZHL = experiment: MTT anti-viability assay; assay type: cell-based; conditions: Human B cell lymphoma, 72 hours
# Procedure: as §3, §4, §5
# SuDHL-6 = experiment: MTT anti-viability assay; assay type: cell-based; conditions: SU-DHL-6, SuDHL-6, Human follicular B cell lymphoma, 72 hours
# Procedure: as §3, §4, §5
# [1] = Preliminary toxicity evaluation in treated mice; assay type: in vivo
# Procedure: A preliminary toxicity evaluation to SKLB-850 was also carried out. […] Besides, toxic pathologic changes in liver, lung, kidney, spleen, and heart were not detected by microscopic examination (Figure 5C).
# To investigate potential side effects or toxicity on mice during the treatment, anorexia skin ulceration, weight loss, diarrhea, and toxic death were observed continuously for relevant indexes. The tissues of heart, liver, spleen, lung, and kidney were stained with hematoxylin and eosin (H&E). ALT, AST, BUN and CREA in serum were measured by the National Chengdu Center for Safety Evaluation of Traditional Chinese Medicine using commercially available kits.
compound,measurement,setting,value
"CN1CCN(c2ccc(Nc3ncc(F)c(Nc4ccc(Cl)cc4C(N)=O)n3)cc2)CC1 [SKLB-850, 5-chloro-2-((5-fluoro-2-((4-(4-methylpiperazin-1-yl)phenyl)amino)pyrimidin-4-yl)amino) benzamide]",Ramos cell chemotaxis toward CXCL12 (in words),Ramos cells,reduced the percentage of Ramos cell chemotaxis toward CXCL12
same,IC50,Pim-2,> 10 µM
same,IC50,PKBα,3.18 µM
same,IC50,Src,0.025 µM
same,IC50,PIP4K2α,> 10 µM
same,IC50,mTOR,> 10 µM
same,IC50,PKCα,> 10 µM
same,IC50,CDK3,> 10 µM
same,IC50,Syk,0.041 µM
same,IC50,JAK2,0.047 µM
same,IC50,EphB3,> 10 µM
same,IC50,EGRF,0.26 µM and 0.255 µM
same,IC50,GSK3β,> 10 µM
same,IC50,Pim-1,> 10 µM
same,IC50,CFPAC-1,7.24 µM
same,IC50,RAJI,1.95 µM
same,IC50,HPAC,> 20 µM
same,IC50 anti-viability,HPAC,did not exhibit activity
same,IC50 anti-viability,"H358; H358, Human non-small cell lung cancer cells",did not exhibit activity
same,IC50,"H358; NCI-H358, H358, Human non-small cell lung cancer cells",> 20 µM
same,IC50,SW1990,2.19 µM
same,IC50,A549,> 20 µM
same,IC50 anti-viability,A549,did not exhibit activity
same,IC50,MDA-MB-231,2.19 µM
same,IC50,SMMC7721,2.2 µM
same,IC50,MCF-7,7.23 µM
same,IC50,HBL-1,0.69 µM
same,IC50,LY-1,1.6 µM
same,IC50,Ramos-ZHL,0.03 µM
same,IC50,SuDHL-6,0.9 µM
same,"toxic pathologic changes in liver, lung, kidney, spleen, and heart (H&E, in words)",[1]; microscopic examination,not detected
same,mouse body weight (in words),"[1]; treated groups, monitored once every three days",no significant differences in weights
same,"levels of ALT, AST, BUN, and CREA of serum (in words)",[1]; treated mice,no obvious changes
